From patent US11179344B2, “Nanoparticle-based liver-targeting therapy” (Midatech Limited, priority 2017, dated 2021) come the findings set out here.

Usually IC50 stands for the point on the concentration scale where inhibition reaches its midpoint. A lower IC50 goes with higher potency. As usually defined, the T/C is the result in the treated group divided by that in the control group, in per cent.

Data set [1] has as its system HCC cell lines HEPG2 and HEP3B. Put plainly: Cytotoxicity of gold nanoparticle constructs vs free DM1 (text values). Format: cell-based, human. As to conditions: line for the value not stated. From the text:
(§1) The cytotoxicity of gold nanoparticle constructs GalC2-PEG8COOH-GNP (parent, non-functionalised gold nanoparticle (MTC-100011)), and MTC-100038 were compared to free DM1 drug in the HCC cell lines HEPG2 and HEP3B.

A further data set relates to Hep3B cells. Description: In vitro cytotoxicity, Hep3B. The class given is cell-based, human.
Excerpt: A lower bar height indicates higher cytotoxic potency.
as §1

The subject of the next data set is BEL7404. Put plainly: In vitro cytotoxicity, BEL7404. The class given is cell-based.
Data set [2] in a line: Tolerability (body weight change), mouse model with human HCC xenograft. The class given is in vivo. As to conditions: I.V., five consecutive days. How it is done:
The animals in this case were a mouse model with a human HCC xenograft. Animals dosed intravenously (I.V.) for five consecutive days (shaded area left of dotted vertical line) at either a low dose of 0.15 mg/kg of DM1 alone (inverted triangles) or high dose of 0.45 mg/kg DM1 alone (diamonds) or MTC-100038 at equivalent DM1 doses low (circles) and high (squares). Percentage body weight change was calculated based on animal weight on the first day of dosing. Data points represent percent group mean change in body weight±SEM. Body weight change is positive in the MTC-100038 nanoparticle-treated animals, but negative (low dose) or fatal (high dose) in the free DM1-treated animals.
On the technique in general: A xenograft is tissue or cells of one species grown in another, often human tumour cells in immunodeficient mice.

Data set [3] can be described thus: Pharmacokinetics and biodistribution of DM1, subcutaneous Hep3B xenograft model. Format: in vivo, NOD/SCID mouse. As to conditions: no further decline at 48 hours, dosed article not stated. How it is done: DM1 tumour concentration (mean±SEM) is shown for MTC-100038-treated (equivalent DM1 dose 0.06 mg/kg) animals (left-hand bars) and free DM1-treated animals (also 0.06 mg/kg dose) (right-hand bars). Time points are 2 hours (solid fill), 24 hours (horizontal lines) and 48 hours (checked pattern).
The in vivo pharmacokinetics and biodistribution of DM1 was studied in the subcutaneous Hep3B human hepatocellular cancer xenograft model (Table 1). The concentration of gold and DM1 in liver and kidney samples was evaluated 2, 24 and 48 hours after the last drug administration.

The test system of data set [4] is subcutaneous Hep3B hepatocellular cancer xenograft. Put plainly: Anti-tumour efficacy, subcutaneous HEP3B xenograft model. The class given is in vivo, NOD/SCID mice. Conditions: 0.1125 mg/kg i.v. QD×5, day 13. How it is done: The in vivo anti-tumour efficacy of MTC-100038 in a subcutaneous Hep3B hepatocellular cancer xenograft model in NOD/SCID mice was evaluated. Briefly NOD/SCID mice (18-22 g, n=10 per group) were implanted subcutaneously with HEP 3B hepatocellular cells (3×10^6) in 0.1 mL PBS for tumour development. Group/dosing assignment commenced when tumours reached a pre-determined volume of ˜200 mm^3 subcutaneous tumours (n=10 per group). Tumour size was measured twice weekly, and the volume was expressed in mm^3. The tumour size was then used for calculations of T/C values. The T/C value (in percent) is an indication of anti-tumour effectiveness (optimally, a test article is considered to have anti-tumour activity when T/C is 50% or less); T and C are the mean volumes of the treated and control groups, respectively, on a given day.

In data set [5] the test system is subcutaneous BEL7404 hepatocellular cancer xenograft. Put plainly: Anti-tumour efficacy, subcutaneous BEL7404 xenograft model. Format: in vivo, NOD/SCID mice. Conditions: for T/C / Tumour size: day 13; for Tumour size: Mean ± SEM. How it is done: The in vivo anti-tumour efficacy of MTC-100038 in a subcutaneous BEL7404 hepatocellular cancer xenograft model in NOD/SCID mice was evaluated. Briefly NOD/SCID mice (18-22 g, n=10 per group) were implanted subcutaneously with BEL7404 tumour cells (3×10^6) in 0.1 ml of PBS for tumour development. Group/dosing assignment commenced when tumours reached a pre-determined volume of ˜200 mm^3 subcutaneous tumours.
Tumour size was measured twice weekly, and the volume was expressed in mm^3. The tumour size was then used for calculations of T/C values.

Data set [6] deals with orthotopic Hep3B-Luc hepatocellular cancer xenograft. Description: Anti-tumour efficacy, orthotopic HEP3B xenograft model (bioluminescence). The class given is in vivo, BALB/c nude mice. Conditions: for T/C (%) / Bioluminescence: day 21; for Bioluminescence: Mean. How it is done:
The in vivo anti-tumour efficacy of MTC-100038 in an orthotopic hepatocellular cancer xenograft model in BALB/c nude mice was evaluated. Briefly, female BALB/c nude mice (18-23 g, n=10/group), were implanted with approximately 3×10^6 Hep3B-Luc cells mixed with BD Matrigel in 20 μL (PBS:Matrigel=1:1). Animals were selected and randomized (based on their bioluminescence density) on day 7 after tumour implantation to 6 groups using randomized block design based upon their bioluminescence.
The tumour bioluminescence was used for the calculation of T/C value (in percent), where T and C are the mean bioluminescence of the treated and control groups, respectively, on a given day. Statistical analysis of difference in bioluminescence among the groups and the analysis of drug interaction were conducted on the data obtained at the best therapeutic time point after the final dose (the 21st day after the start of treatment).
A one-way ANOVA was performed to compare bioluminescence among groups, and when a significant F-statistics (a ratio of treatment variance to the error variance) was obtained, comparisons between groups were carried out with Games-Howell test with p<0.05 statistically significant.

The subject of data set [7] is human hepatocellular carcinoma cell line HepG2. Put plainly: MTT cell viability assay, Pt / doxorubicin loaded nanoparticles vs free drug. As to conditions: concentration based on drug amount, FIG. 7: 72 h after treatment. The protocol: The human hepatocellular carcinoma cell line HepG2 was used in the assay.
HepG2 cells were grown in a T-75 flask. For the transfer of the cell the medium was removed from the flask and the cells were trypsinated for 5 minutes. The cells were collected in a Falcon tube and diluted with complete cell medium. The cell counting was conducted in a Neubauer chamber. A cell solution was prepared to seed 4000 cells per well (200 μL per well). The microtiter plate was incubated for 24 h at 37° C.
For each NP and drug, formulations in cell medium were prepared. The compounds were tested in different concentrations (0.01, 0.05, 0.2, 1, 5, 25 and 125 μM based on drug amount). For the treatment, the cell medium was removed from all wells and exchanged for drug formulations. 200 μl of treatments per triplicate was added to each well. The microtiter plates were incubated for 24 h, 48 h and 72 h at 37° C.
1.5 mL MTT solution (8.0 mg in 1.6 mL DMSO) was diluted with complete cell medium (phenol-red free). The treatment cell medium was removed from the microtiter plate, the wells were washed with 100 μL PBS and 100 μL of the MTT reactive solution was added to each well. After one hour incubation at 37° C. the MTT solution was removed and 100 μL DMSO was added to dissolve the formazan dye. Absorbance was measured at 570 nm.
Data were analysed using OriginPro8. The normalized data were plotted and the curve was fitted using a non-linear regression curve fit (sigmoidal dose-response curve with variable slope). The Absolute IC50 values were obtained by interpolation.

For another data set, the system named is HCC cells. Put plainly: In vitro targeting of GNPs to HCC cells (counts per field). Format: cell-based. As to conditions: relative to base GNP lacking the peptide. An excerpt: (SEQ ID NO: 1), via its N-terminus (approx. 4 peptide molecules per nanoparticle).
Several base/peptide targeted GNPs were screened in vitro. GNPs having a mixed corona comprising galactose-C2-SH (Gal-C2) ligands and HSPEG8COOH were synthesised according to methodology analogous to that described above in Examples 1 and 2, with however galactose-C2-SH replacing glucose-C2-SH and HSPEG8COOH (also abbreviated SH-EG8-COOH or SH—(OCH2CH2)8—COOH) replacing the amino linker NH2-EG6-SH.
The glypican-3 peptide described in U.S. Pat. No. 8,388,937B2 (the contents of which are expressly incorporated herein by reference)—see SEQ ID NO: 1 thereof, which has the amino acid sequence: […] (SEQ ID NO: 1) was linked to the terminal COOH group of a proportion of the HSPEG8COOH ligands via the N-terminus of said peptide. In a “high loading” GNP construct (see row 1 in the table below), approximately 4 peptides were linked per nanoparticle core. The “high loading” Au@Gal-C2:HSPEG8COOH:HSPEG8CONH[…] The “low loading” Au@Gal-C2:HSPEG8COOH:HSPEG8CONH[…]

Data set [8] in a line: Tolerability (body weight change), Hep3B orthotopic xenograft model. Format: in vivo, BALB/c nude mice. Conditions: daily oral administration for 21 days. The protocol: The animals in this case were a mouse HCC model with a Hep3B orthotopic xenograft. MTC-100038, DM1, or vehicle were administered I.V. to BALB/c nude mice in 2×5 day cycles (shaded), whilst Sorafenib was administered by daily oral administration for 21 days (dashed line) at a dose of 60 mg/kg, which was the highest tolerated dose in this model. Percentage body weight change was calculated based on animal weight on the first day of dosing. Data points represent percent group mean change in body weight±SEM. Treatment groups were: Vehicle (black circles), Sorafenib 60 mg/kg (squares), free DM1 0.150 mg/kg (triangles), MTC-100038 0.225 mg/kg (green circles), MTC-100038 0.338 mg/kg (diamonds) and MTC-100038 0.450 mg/kg (inverted triangles).

Setting [9] is: 0.15 mg/kg i.v. QD×5 (D0-4) + QD×5 (D8-12).

On to `COc1cc2cc(c1Cl)N(C)C(=O)C[C@H](OC(=O)[C@H](C)N(C)C(=O)CCS)[C@]1(C)O[C@H]1[C@H](C)[C@@H]1C[C@@](O)(NC(=O)O1)[C@H](OC)/C=C/C=C(\C)C2` [DM1, maytansinoid DM1], for which the 50% inhibitory concentration (IC50) was determined as 4.15 nM in [1], 11 nM in the data set on Hep3B cells and 9 nM with BEL7404. The “body weight change, low dose” value in data set [2] (0.15 mg/kg DM1 or equivalent DM1 dose) was “negative”. The “body weight change, high dose” value in [2] (0.45 mg/kg DM1 or equivalent DM1 dose) is recorded as “fatal”. For the same compound, the “decline of DM1 concentration in the tumour between 2 and 24 hours” value in [3] is on record as “about 40%”. Besides, the T/C in data set [4] stood at 78.9%; in data set [5] (setting [9]), 113.2%. The Tumour size in [4] (Mean ± SEM) amounted to 1217 ± 254 mm^3; in data set [5] (setting [9]), 2656 ± 180 mm^3. The “anti-tumour activity compared to vehicle” value in [5] (0.15 mg/kg) is “no anti-tumour activity”. Besides, the “anti-tumour activity compared with vehicle group” value in [6] (0.15 mg/kg) is recorded as “no anti-tumour activity”. Besides, the “T/C (%)” value in [6] (setting [9]) was found to be 83.4%. For the same compound, the Bioluminescence in data set [6] (setting [9]) is listed as 1.21E+10 photons/s.
As to platinum-(IV)-succinate, the IC50 in data set [7] and in [7] (listed as Pt(IV)-succinate) was 38600 nM throughout.
Turning to `COc1cccc2c1C(=O)c1c(O)c3c(c(O)c1C2=O)C[C@@](O)(C(=O)CO)C[C@@H]3O[C@H]1C[C@H](N)[C@H](O)[C@H](C)O1` [Doxorubicin, doxorubicin], 60 nM corresponded to half-maximal inhibition in data set [7] (Homo sapiens) (IC50).
In the case of GNP-GalC2(50)-AL(50)-(Ac)YFLTTRQ, the “Fold-targeting (over base particle)” value with HCC cells was 5.0 fold; in the data set with HCC cells (listed as Au@GalC2:AL:AL-(Ac)-YFLTTRQ) it was “approximately 5 fold”.
With `CNC(=O)c1cc(Oc2ccc(NC(=O)Nc3ccc(Cl)c(C(F)(F)F)c3)cc2)ccn1` [Sorafenib], the highest tolerated dose in data set [8] stood at 60 mg/kg. For the same compound, the “anti-tumour activity compared to vehicle” value in data set [5] (60 mg/kg over 21 days) is on record as “significant tumour growth inhibition”. In data set [5] (60 mg/kg p.o. QD×21), this compound showed a T/C of 41.9% and a Tumour size of 984 ± 64 mm^3. For the same compound, the “anti-tumour activity compared with vehicle group” value in [6] (60 mg/kg) is “significant anti-tumour activity”. Further, in [6] (60 mg/kg p.o. QD×21), the “T/C (%)” value stood at 22.3% and the Bioluminescence is reported as 3.24E+09 photons/s. Moreover, the Bioluminescence in data set [6] (60 mg/kg p.o. QD×21, listed as sorafenib) is given as 3.24×10^9 photons/s.
